US8173643B2, “N-substituted thiomorpholine derivatives as the inhibitors of dipeptidyl peptidase IV and the pharmaceutical uses thereof” (Beijing Molecule Science and Technology Co., Ltd., priority 2007, dated 2012)
Counter-ions that a name gives are not always drawn.

Assays:
[1] = molecular target: T1, DPP-IV (Homo sapiens, UniProt P27487); assay: Determination of DPP-IV inhibitory activity and IC50 (enzyme from Caco-2 cell lysate, absorbance at 405 nm); assay type: biochemical; settings: for inhibition at 0.1 µM: Concentration 100 nM; for inhibition at 0.3 µM: Concentration 300 nM
T1 construct: endogenous in cells; host or cells: Caco-2 (human colon carcinoma), differentiated; NP-40 lysate, 35000 g supernatant
T1 sequence (P27487 whole entry): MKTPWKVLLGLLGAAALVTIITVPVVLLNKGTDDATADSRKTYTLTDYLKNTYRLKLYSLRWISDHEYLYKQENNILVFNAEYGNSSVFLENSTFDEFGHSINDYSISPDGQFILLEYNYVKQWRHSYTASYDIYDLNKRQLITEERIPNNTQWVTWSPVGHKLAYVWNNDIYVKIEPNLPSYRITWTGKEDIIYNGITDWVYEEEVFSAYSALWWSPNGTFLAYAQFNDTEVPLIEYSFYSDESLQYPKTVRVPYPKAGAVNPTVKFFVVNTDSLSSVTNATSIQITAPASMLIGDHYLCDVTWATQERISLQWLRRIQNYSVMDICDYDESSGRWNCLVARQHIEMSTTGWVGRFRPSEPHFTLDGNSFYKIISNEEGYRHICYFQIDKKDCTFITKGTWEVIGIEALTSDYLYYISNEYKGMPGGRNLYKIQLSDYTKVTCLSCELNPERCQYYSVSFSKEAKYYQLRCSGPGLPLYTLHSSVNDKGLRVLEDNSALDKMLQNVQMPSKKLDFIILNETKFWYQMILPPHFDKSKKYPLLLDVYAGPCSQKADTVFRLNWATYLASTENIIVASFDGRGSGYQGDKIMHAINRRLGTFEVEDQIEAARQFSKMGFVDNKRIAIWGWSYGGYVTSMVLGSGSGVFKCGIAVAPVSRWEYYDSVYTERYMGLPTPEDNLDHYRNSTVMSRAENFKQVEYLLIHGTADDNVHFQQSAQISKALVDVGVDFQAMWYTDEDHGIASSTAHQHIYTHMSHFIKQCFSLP
Method: Cultivation of human colon carcinoma cell-line cells (Caco-2): Caco-2 cells were cultivated in a culture medium of DMEM (high glucose, containing 10% fetal bovine serum, 1% NAA), and the cell lines were passaged in a proportion of 1:1 or 1:2; after nearly reaching confluence, the cells were further cultivated for 2-3 weeks, while changing the medium once every 2-3 days.
Preparation of DPP-IV: the cells were washed with a pre-cooled PBS for 2-3 times, and 0.5-1 ml ice-cold 10 mM Tris-HCl (containing 0.15 M NaCl, 0.04 t.i.u aprotinin, 0.5% nonionic detergent P40, pH 8) was added to each culture bottle to lysate the cells, followed by collecting them in a centrifuge tube. After centrifugation at 4° C., 35000 g for […], the obtained supernatant was collected, and subjected to a protein content detection, and then stored in a low temperature refrigerator.
The test groups included enzyme control group, substrate control group, enzyme reaction control group, and compound group, and the test was carried out in a 96-pore plate, using 150 μL reaction system. In the 96-pore plate, a diluted test compound was added in the compound group, 30 μL/pore; 20 μL DPP-IV solution was added in the enzyme control group, as well as in the compound group; an analytic buffer (25 mM Tris-HCl pH 7.4, containing 140 mM NaCl, 10 mM KCl, 1% bovine serum albumin) was added in 130 μL to the enzyme control group, in 125 μL to the substrate control group, in 105 μL to the enzyme reaction control group, and in 75 μL to the compound group; and then 25 μL substrate (1 mM) was added, followed by reacting at room temperature for 10 min. No substrate was added in the enzyme control group. After reacting for 10 min, 25% glacial acetic acid was added in 19 μL/pore to terminate the reaction. The absorbance was determined by using an enzyme calibrating apparatus at a wavelength of 405 nm.

[2] = system: obese mouse; settings: 10 mg/kg, 2 times/d, long-term treatment; cited from earlier work
[3] = pig, in vivo, cited from earlier work
[4] = system: streptozotocin-induced DM male mouse; settings: 2 times/d, after 7 weeks; cited from earlier work

## CC(C)C[C@@H](N)C(=O)N1CCSC[C@H]1C#N [Compound 2, (R)-3-cyano-4-(2-amino-4-methyl-pentanoyl)thiomorpholine hydrochloride]
[1]; read-out: Inhibitory rate(%)
  inhibition at 0.1 µM: 24.1 ± 2.41%
  inhibition at 0.3 µM: 47.2 ± 0.64%

## CC(C)(C)[C@H](N)C(=O)N1CCC[C@H]1C#N [FE 999011]
[2]
  postponement of the occurrence of hyperglycemia: 21 days

## GIP: gastric inhibitory peptide, an incretin secreted by K cells, substrate of DPP-IV
[3]; iv
  immunocompetence of intact GIP shown by radioimmunoassay: 14.5%
[3]
  immunocompetence of GIP: 49%

## CC[C@H](C)[C@H](N)C(=O)N1CCSC1 [P32/98]
[4]
  fraction of islet β cells increased, as compared with the control group: 12%
  number of islets increased, as compared with the control group: 35%
  number of overall β cells increased, as compared with the control group: 120%
  plasma insulin level: approaching to normal

## CC(C)[C@@H](N)C(=O)N1CCSC[C@H]1C#N (stereo in doubt) [Compound 1, (R)-3-cyano-4-(2-amino-3-methyl-butyryl)thiomorpholine hydrochloride]
[1]; Concentration 10 nM, read-out: Inhibitory rate(%)
  inhibition at 0.01 µM: 7.65 ± 0.68%
[1]; Concentration 30 nM, read-out: Inhibitory rate(%)
  inhibition at 0.03 µM: 13.2 ± 1.92%
[1]; read-out: Inhibitory rate(%)
  inhibition at 0.1 µM: 40.3 ± 3.09%
  inhibition at 0.3 µM: 73 ± 1.74%
[1]; Concentration 1000 nM, read-out: Inhibitory rate(%)
  inhibition at 1 µM: 101 ± 1.36%
[1]; DPP-IV from Caco-2 cells
  IC50: 189 ± 26.4 nM
